Test results from patent US20050026982A1, “Composition that consists of alkanedicarboxylic acids and a pharmaceutical active ingredient” (priority 2003, published 2005).
“Also recorded” adds a separate entry of the source. Marks after values point to notes of the source that are not given here.

System: croton-oil-inflamed mouse skin
Assay: Croton oil-induced inflammation on the mouse ear (irritative contact dermatitis model), leukocyte infiltration of the skin
Type: in vivo
Conditions: metronidazole 0.75%; for Inhibition [%] of the Skin Infiltration of Granulocytes & Monocytes (Myelo-Peroxidase Activity) / Inhibition [%] of the Skin Infiltration of Neutrophilic (Elastase Activity): croton oil dissolving-out on mouse ear, inhibition vs croton oil + vehicle treatment, azelaic acid 20%, methylprednisolone 0.1%, ethanol/isopropyl myristat; for Therapeutic effect in the inflammation model in comparison to the vehicle (peroxidase and elastase activity in the skin): azelaic acid 20% in ethanol/isopropyl myristat
Excerpt: The induction of an inflammatory reaction (irritative contact dermatitis) is a common model for pharmacological evaluation of the anti-inflammatory potential of topically or systemically administered test substances (Trancik and Lowe (1985) Evaluation of Topical Nonsteroidal Anti-Inflammatory Agents, Models in Dermatology, H. Maibach and N. J. Lowe. Basel, Karger: 35-42). It has proven effective, i.a., in the testing of non-steroidal antiphlogistic agents as well as in glucocorticoid steroids and is regarded as the most reproducible in-vivo test for the evaluation of topical anti-inflammatory substances (Lorenzetti (1975) Animal to Clinical Correlation of Topical Anti-Inflammatory Efficacy. Animal Models in Dermatology. H. Maibach. Basel Karger: 212-225).
The application of the phorbol ester croton oil to mouse ears results in an acute, inflammatory reaction with edema and immigration of primarily polymorphonuclear granulocytes that reaches its maximum within 24 hours. In this connection, test substances can be administered either preventively (i.e., before administration of the inflammatory stimuli) or simultaneously with croton oil. The croton oil-induced inflammation on the mouse ear is not only a model of irritative and/or allergic contact dermatitis, but also other skin diseases that are associated with a high inflammation and immigration of granulocytes. These include psoriasis, atopic dermatis, common acne and the inflammatory stage of rosacea.
Rosacea is a disease of unknown etiology that is considered by many authors to be in the acne group and is generated on the latter and can remove the latter over the course of time. The disease is divided into three stages, of which in particular Rosacea II and III are characterized by inflammatory nodules, nodes, and patches. A leukocytic infiltrate is found by histology (Braun-Falco et al. (1995) Dermatologie und Venerologie. Heidelberg, Springer). Because of the inflammatory components of these stages with leukocyte infiltration of the skin, the croton oil model reflects aspects of this disease.
The activity included, i.a., the immigrations of leukocytes, measured as peroxidase activity in the skin, as well as the immigration of neutrophilic granulocytes, measured as elastase activity in the skin (Table 1).

Compound	Inhibition [%] of the Skin Infiltration of Granulocytes & Monocytes (Myelo-Peroxidase Activity)	Inhibition [%] of the Skin Infiltration of Neutrophilic (Elastase Activity)	Therapeutic effect in the inflammation model in comparison to the vehicle (peroxidase and elastase activity in the skin)
O=C(O)CCCCCCCC(=O)O [Azelaic Acid, azelaic acid]	21 (n.s.)* %	11 (n.s.)* %	did not show such high, therapeutic effects; also recorded: do not show such high, therapeutic effects
C[C@H]1C[C@@H]2[C@H]([C@@H](O)C[C@@]3(C)[C@H]2CC[C@]3(O)C(=O)CO)[C@@]2(C)C=CC(=O)C=C12 [Methylprednisolone]	90 (p < 0.05)* %	95 (p < 0.05)* %	
Cc1ncc([N+](=O)[O-])n1CCO [Metroidazole, 1-(2-hydroxyethyl)-2-methyl-5-nitroimidazole]	9 (n.s.)* %	18 (n.s.)* %	did not show such high, therapeutic effects; also recorded: do not show such high, therapeutic effects
